According to patent publication US9132140B2, “Boronic acid derivatives and therapeutic uses thereof” (Rempex Pharmaceuticals, Inc., priority 2013, dated 2015):

Columns and labels:
KPC-2 [1] = biological target: T1, KPC-2 (Klebsiella pneumoniae, UniProt Q9F663); assay: Inhibition of purified beta-lactamase, nitrocefin cleavage; format: biochemical; conditions: read-out: Ki (KPC-2, NCF)
Experimental: Purified enzymes were mixed with various concentrations of inhibitors in reaction buffer and incubated for 10 min at room temperature. Nitrocefin was added and substrate cleavage profiles were recorded at 490 nm every 10 sec for 10 min.

KPC-2 [2] = biological target: T1, KPC-2; assay: Inhibition of purified class A carbapenemase, biapenem cleavage; format: biochemical; conditions: substrate biapenem 100 μM
[3] = test system: panel of clinical isolates expressing class A, B and D carbapenemases; assay: Carbapenem potentiation MIC, whole panel; format: cell-based; conditions: all strains of the panel; compound fixed 5 μg/ml
Description: The results are present in Table 6.
The results are present in Table 7.

ECM6711 (pUCP24-VIM-1) = assay: microbe, parasite or virus in culture; format: cell-based, E. coli; conditions: VIM-1 producing strain; compound fixed 4 μg/ml or 8 μg/ml
ECM6703 (pUCP24-NDM-1) = assay: microbe, parasite or virus in culture; format: cell-based, E. coli; conditions: NDM-1 producing strain; compound fixed 4 μg/ml or 8 μg/ml

T1 sequence (Q9F663 25-293, looked up, species assumed): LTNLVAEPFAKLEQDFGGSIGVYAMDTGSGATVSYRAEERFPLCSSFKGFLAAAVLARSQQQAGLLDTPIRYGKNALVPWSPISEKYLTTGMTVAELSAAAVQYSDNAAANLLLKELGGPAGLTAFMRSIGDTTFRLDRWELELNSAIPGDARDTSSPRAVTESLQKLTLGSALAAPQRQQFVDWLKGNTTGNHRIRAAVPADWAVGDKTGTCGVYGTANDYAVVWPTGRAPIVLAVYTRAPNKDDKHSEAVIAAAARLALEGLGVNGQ

Structure (SMILES): O=C(O)c1cccc2c1OB(O)[C@@H](Sc1nncs1)C2 [Compound 1, (R)-3-(1,3,4-thiadiazol-2-ylthio)-2-hydroxy-3,4-dihydro-2H-benzo[e][1,2]oxaborinine-8-carboxylic acid]
- Ki (KPC-2 [1]): 100 to 1000 nM
- Ki (KPC-2 [2]): 10 to 100 nM
- carbapenem MIC in the presence of compound [3]: significantly reduced
- imipenem MIC in the presence of compound (ECM6711 (pUCP24-VIM-1)): decreased to the level of the strain containing empty vector
- imipenem MIC in the presence of compound (ECM6703 (pUCP24-NDM-1)): decreased to the level of the strain containing empty vector
